Test results from patent EP0909175B1, “NON-AQUEOUS PROTIC PEPTIDE FORMULATIONS” (ALZA CORPORATION, priority 1996, dated 1998).

Tests used:
Type in all cases: physicochemical
[1] = Anti-gellant effect of adding polar aprotic solvents (DMSO) to non-aqueous protic solvent formulations; conditions: adding polar aprotic solvents such as DMSO to non-aqueous protic solvent formulation
Description: For example, leuprolide can be induced to gel by increasing peptide concentration, introduction of salts or gentle agitation. Improving physical stability can allow for easier parenteral administration, including administration using implantable drug delivery systems.
Thus, these solvents have an anti-gellant effect.

[2] = Solubility studies of leuprolide acetate in PG (Example 3); conditions: in PG (w/w), heated at 80°C to accelerate dissolution
Method: Leuprolide acetate (obtained, for example, from Mallinckrodt, St. Louis, Missouri) was weighed and dissolved using heat (80°C), swirling, agitation and/or centrifugation as needed, in vehicle (PG, PEG, MPEG, PG/H2O, PG/H2O, PEG/PG, MPEG/H2O, or PG with EDTA) at the appropriate concentration (w/w). Unless otherwise noted the term PEG means PEG 300. The term dry PG refers to PG formulations prepared in a low moisture environment (i.e., dry N2 atmosphere). Leuprolide acetate formulations in PG were prepared as described above. Formulations were heated at 80°C to accelerate the dissolution of leuprolide in PG.

[3] = Stability of nafarelin formulations, one month at 37°C, RP-HPLC (Example 11); conditions: for % CONCENTRATION: % concentration method called unreliable
Method: (§1) Stability samples were analyzed using RP-HPLC. The area under the curve for the leuprolide peak divided by the sum of the areas under the curve of all peaks gave % purity. [It should be noted that the data for % concentration presented with the % purity data (Examples 6, 8, 9 and 10) are inconclusive. The analysis methods used to determine % concentration in these experiments were unreliable.]
Formulations of 15% (w/w) nafarelin in either PEG 600 or propylene glycol were prepared as described above for leuprolide and placed in polymeric containers.
The containers were stored at 37°C for one month in an incubator.
The samples were analyzed using RP-HPLC to determine the chemical stability of the aged formulations.

[4] = Stability of goserelin formulations, one month at 37°C, RP-HPLC (Example 10); conditions: for % CONCENTRATION: patent calls % concentration data unreliable
Method: as §1
Formulations of 40-45% (w/w) goserelin in either PEG 600 or PG/acetate buffer (30:70) were prepared as described above and placed in polymeric containers. The containers were stored at 37°C for one month in an incubator. The samples were analyzed using RP-HPLC to determine the chemical stability of the aged formulations.

[5] = vehicle PEG 600, one month at 37°C

In the case of leuprolide, the “gelation of the formulation” value [1] is reported as “prevents gelation”.
In the case of Leuprolide acetate, the “% Leuprolide Acetate” value ([2]; 146.8 mg leuprolide acetate in 147.2 mg PG) is reported as 49.93%, the “% Leuprolide Acetate” value ([2]; 148.6 mg leuprolide acetate in 225.7 mg PG) is reported as 39.70% and the “% Leuprolide Acetate” value ([2]; 154 mg leuprolide acetate in 183.7 mg PG) is reported as 45.60%.
For calcitonin, the “gelation of the formulation” value [1] was “prevents gelation”.
With nafarelin the “% PURITY” value ([3]; vehicle PEG 600, 15% (w/w), one month at 37°C) was 99.4%, the “% CONCENTRATION” value [3, 5] was 15.8% and the “% PURITY” value ([3]; vehicle PG, 15% (w/w), one month at 37°C) was 99.4%. For the same substance, the “% CONCENTRATION” value ([3]; vehicle PG, one month at 37°C) was 12.9%.
In the case of goserelin, the “% PURITY” value ([4]; vehicle PEG 600, 40-45% (w/w), one month at 37°C) is reported as 99.3%, the “% CONCENTRATION” value [4, 5] is reported as 23.6% and the “% PURITY” value ([4]; vehicle PG/Acetate Buffer(30:70), 40-45% (w/w), one month at 37°C) is reported as 98.2%. For the same substance, the “% CONCENTRATION” value ([4]; vehicle PG/Acetate Buffer(30:70), one month at 37°C) was 49.7% and the “gelation of the formulation” value [1] was “prevents gelation”.
